# Measurements: article PMC10254852, “Design, Synthesis and Anticancer Evaluation of Nitroimidazole Radiosensitisers” (Molecules, 2023)
# Tested on: HCT116/54C cells
# Experiment: In vitro cytotoxicity, 4 h exposure oxic/anoxic, 5-day regrowth, sulforhodamine B
# Format: cell-based, human
# Details: HCT116/54C, IC50(oxic)/IC50(anoxic)
# Description: (§1) This allowed derivation of hypoxia cytotoxicity ratios (HCR) as IC50(oxic)/IC50(anoxic) in an HCT116 subclone HCT116/54C and two HNSCC cell lines, FaDu and UT-SCC-74B (Table 2).
# (§2) HCT116/54C is an HCT116 subline that originated from a mixed culture with UT-SCC-54C cells, which was supplied alongside UT-SCC-74B by Prof. Bradly Wouters (University Health Network, Toronto, ON, Canada). HCT116/54C and UT-SCC-74B cells were passaged in minimum essential media (MEM, ThermoFisher Scientific, Waltham, MA, USA) with 10% foetal calf serum (FCS, Moregate Biotech, Hamilton, New Zealand), 4.5 mg/mL D-glucose (Sigma-Aldrich, St. Louis, MO, USA) and 20 mM HEPES (Sigma-Aldrich). FaDu cells were sourced from American Type Culture Collection and cultured in αMEM (ThermoFisher Scientific) with 10% FCS. All cell lines were confirmed mycoplasma-free by PlasmoTest (InvivoGen, San Diego, CA, USA) and were derived from STR-authenticated cryopreserved stocks. Log-phase cells were seeded into 96-well plates at 800 cells/well for HCT116/54C and 1500 cells/well for FaDu. […] After drug washout, cells were grown and stained as for the oxic IC50 assays. The hypoxic cytotoxicity ratio HCR was determined as HCR = IC50(oxic)/IC50(anoxic).
row,SMILES,HCR
1,O=[N+]([O-])c1nccn1CS(=O)(=O)NCCO [Compound 5],>21
2,O=[N+]([O-])c1cncn1CS(=O)(=O)NCCO [Compound 7],3.3

# Same assay, conditions: Homo sapiens; HCT116/54C, anoxic, 4 h exposure, mean ± SEM, n = 3–4; read-out: IC50 Anoxic
row,SMILES,IC50 [µM]
1,O=[N+]([O-])c1nccn1CS(=O)(=O)NCCO [Compound 5],290 ± 20
2,O=[N+]([O-])c1cncn1CS(=O)(=O)NCCO [Compound 7],1400 ± 100

# Same assay, conditions: Homo sapiens; HCT116/54C, oxic, 4 h exposure, mean ± SEM, n = 3–4; read-out: IC50 Oxic
row,SMILES,IC50 [µM]
1,O=[N+]([O-])c1nccn1CS(=O)(=O)NCCO [Compound 5],> 6200
2,O=[N+]([O-])c1cncn1CS(=O)(=O)NCCO [Compound 7],4600 ± 300

# Tested on: UT-SCC-74B cells
# Experiment: as above
# Format: cell-based, human
# Details: Homo sapiens, anoxic, 4 h exposure, mean ± SEM, n = 3–4, read-out: IC50 Anoxic
# Description: as §1, §2
row,SMILES,IC50 [µM]
1,O=[N+]([O-])c1nccn1CS(=O)(=O)NCCO [Compound 5],240 ± 40
2,O=[N+]([O-])c1cncn1CS(=O)(=O)NCCO [Compound 7],1300 ± 40

# Same assay, conditions: Homo sapiens, oxic, 4 h exposure, mean ± SEM, n = 3–4, read-out: IC50 Oxic
row,SMILES,IC50 [µM]
1,O=[N+]([O-])c1nccn1CS(=O)(=O)NCCO [Compound 5],4300 ± 800
2,O=[N+]([O-])c1cncn1CS(=O)(=O)NCCO [Compound 7],4200 ± 900

# Same assay, conditions: IC50(oxic)/IC50(anoxic)
row,SMILES,HCR
1,O=[N+]([O-])c1nccn1CS(=O)(=O)NCCO [Compound 5],17.7
2,O=[N+]([O-])c1cncn1CS(=O)(=O)NCCO [Compound 7],3.3

# Tested on: FaDu cells
# Experiment: as above
# Format: cell-based
# Details: Homo sapiens, anoxic, 4 h exposure, mean ± SEM, n = 3–4, read-out: IC50 Anoxic
# Description: as §1, §2
row,SMILES,IC50 [µM]
1,O=[N+]([O-])c1nccn1CS(=O)(=O)NCCO [Compound 5],230 ± 10
2,O=[N+]([O-])c1cncn1CS(=O)(=O)NCCO [Compound 7],1400 ± 20

# Same assay, conditions: Homo sapiens, oxic, 4 h exposure, mean ± SEM, n = 3–4, read-out: IC50 Oxic
row,SMILES,IC50 [µM]
1,O=[N+]([O-])c1nccn1CS(=O)(=O)NCCO [Compound 5],2300 ± 200
2,O=[N+]([O-])c1cncn1CS(=O)(=O)NCCO [Compound 7],5400 ± 700

# Same assay, conditions: IC50(oxic)/IC50(anoxic)
row,SMILES,HCR
1,O=[N+]([O-])c1nccn1CS(=O)(=O)NCCO [Compound 5],10.0
2,O=[N+]([O-])c1cncn1CS(=O)(=O)NCCO [Compound 7],4.0

# Tested on: HCT116/54C cells
# Experiment: In vitro radiosensitisation under anoxia, clonogenic survival
# Format: cell-based, human
# Details: compound 1 mM, radiation dose for 1% survival/radiation dose for 1% survival with compound, mean ± SEM
# Protocol: Next, we evaluated in vitro radiosensitisation by using a representative subset of nitroimidazole compounds in HCT116/54C cells with a clonogenic survival endpoint. Radiosensitisation was determined by treating cells under anoxia with a range of radiation doses alone and with compounds at equimolar doses (1 mM). Sensitiser enhancement ratios (SER) were calculated as the ratio of radiation dose required for 1% clonogenic survival alone or with compound (Table 3).
# Cells were seeded onto 96-well plates at 10^5 cells per well and allowed to attach for 2 h. […] The plates were irradiated (Eldorado 78 ^60Co teletherapy unit, ~2 Gy/min) with 15 Gy under anoxia at room temperature for SR experiments. A metal wedge placed on the top of the metal chamber was used to achieve a graduated radiation dose across the plate, varying from 7 to 29 Gy, calibrated by Fricke dosimetry with ammonium thiocyanate as previously described for SER experiments. The control plate (compound alone, no radiation) was left inside the anaerobic chamber at room temperature during the irradiation period. After treatment, the cells were trypsinized and suspended in usual media + 1% penicillin-streptomycin (ThermoFisher Scientific), and 10-fold serial dilutions were plated for clonogenic survival. After 10 days, plates were stained with methylene blue (2 g/L in EtOH/H2O, 1:1 v/v) and colonies with more than 50 cells were counted. The surviving fraction (SF) was determined as: SF = PE(irradiated)/PE(control) where the plating efficiency (PE) = (No. of colonies)/(No. of cells plated). SF was plotted against radiation dose. Survival ratios (SR) were calculated: SR = (cell survival with radiation)/(cell survival with drug + radiation). Sensitizer enhancement ratios (SER) were calculated: SER = (radiation dose for 1% survival without compound)/(radiation dose for 1% survival with compound).
row,SMILES,SER at 1 mM
1,O=[N+]([O-])c1nccn1CS(=O)(=O)NCCO [Compound 5],1.72 ± 0.06
2,O=[N+]([O-])c1cncn1CS(=O)(=O)NCCO [Compound 7],1.41 ± 0.02

# Tested on: HCT116/54C tumours
# Experiment: Tumour radiosensitisation: ex vivo clonogenic assay
# Format: in vivo, NIH-III mice
# Details: 2.2 mmol/kg i.v. 5 min prior to 10 Gy radiation, surviving fraction after radiation/surviving fraction after drug + radiation
# Protocol: (§3) Specific pathogen-free six- to eight-week-old female NIH-III mice, bred in the Vernon Jansen Unit, University of Auckland, were used for animal experiments. Animals had ad libitum access to food and water and were maintained in microisolator cages on a 12 h light/dark cycle. All treatments were administered by i.v. injection at a dose of 2.2 mmol/kg and injection volume of 10 mL/kg. Compounds 2, 34 and 38 were administered as solutions in saline containing 1% DMSO or for 9–12 as solutions in saline containing 2 molar equivalents of NaHCO3. Control animals received an i.v. injection of saline at 10 mL/kg. All animal experiments were conducted under the auspices of the University of Auckland Animal Ethics Committee (approval 1781).
# (§4) Compounds were evaluated for in vivo radiosensitisation of hypoxic cells in HCT116/54C and UT-SCC-74B human tumour xenografts using clonogenic survival as an endpoint, using previously report methods. Tumours were grown subcutaneously on the flanks of NIH-III mice by injecting 5 × 10^6 HCT116/54C cells or UT-SCC-74B cells. Once tumours reached a volume of approximately 250 mm^3, mice were randomly assigned to 4 treatment groups and treated with: (A) vehicle control, (B) 10 Gy RAD only, (C) sensitiser only, or (D) sensitiser given before 10 Gy RAD. Drugs were administered as a single i.v. dose at 2.2 mmol/kg. […] Tumours were excised 18 h after treatment, and tumour cells were dissociated enzymatically and plated to determine the number of surviving (clonogenic) cells per gram of tumour tissue. SF and SR were calculated as described above. Statistical significance of drug effects was tested using one-way ANOVA with Sidak tests for multiple comparisons vs. radiation alone (Table 5).
row,SMILES,Sensitisation Ratio
1,O=[N+]([O-])c1nccn1CS(=O)(=O)NCCOP(=O)(O)O [Compound 9],6.22

# Same assay, conditions: 2.2 mmol/kg i.v. + 10 Gy, one-way ANOVA
row,SMILES,enhancement of tumour killing of radiotherapy (RAD vs drug + RAD)
1,O=[N+]([O-])c1nccn1CS(=O)(=O)NCCOP(=O)(O)O [Compound 9],significantly enhanced the tumour killing of radiotherapy

# Same assay, conditions: drug alone 2.2 mmol/kg i.v., relative to untreated tumours
row,SMILES,single agent cell kill [%]
1,O=[N+]([O-])c1nccn1CS(=O)(=O)NCCOP(=O)(O)O [Compound 9],65.7 ± 8.2

# Tested on: UT-SCC-74B tumours
# Experiment: as above
# Format: in vivo, NIH-III mice
# Details: 2.2 mmol/kg i.v. 5 min prior to 10 Gy radiation, surviving fraction after radiation/surviving fraction after drug + radiation
# Protocol: as §3, §4
row,SMILES,Sensitisation Ratio
1,O=[N+]([O-])c1nccn1CS(=O)(=O)NCCOP(=O)(O)O [Compound 9],9.64

# Same assay, conditions: 2.2 mmol/kg i.v. + 10 Gy, one-way ANOVA
row,SMILES,enhancement of tumour cell killing by radiotherapy (RAD vs drug + RAD)
1,O=[N+]([O-])c1nccn1CS(=O)(=O)NCCOP(=O)(O)O [Compound 9],significantly enhanced tumour cell killing by radiotherapy

# Tested on: not given
# Experiment: not given
# Parameters: method as in PMID 29253343
# Details: comparison values for earlier alcohols; cited from earlier work
row,SMILES,aqueous solubility [mM]
1,O=[N+]([O-])c1nccn1CS(=O)(=O)NCCO [Compound 5],18
2,O=[N+]([O-])c1cncn1CS(=O)(=O)NCCO [Compound 7],23

# Tested on: not given
# Experiment: not given
# Parameters: method as in PMID 29253343
# Details: NIH-III mice, 2.2 mmol/kg i.v.; cited from earlier work
SMILES,AUC [µM·h],T1/2 [h]
O=[N+]([O-])c1nccn1CS(=O)(=O)NCCOP(=O)(O)O [Compound 9],550,2.33

# Same assay, conditions: NIH-III mice, 2.2 mmol/kg i.v.; read-out: Plasma Cmax; cited from earlier work
row,SMILES,Cmax [µM]
1,O=[N+]([O-])c1nccn1CS(=O)(=O)NCCOP(=O)(O)O [Compound 9],920
